Experimental data as given in article PMC5844530, “Fosmetpantotenate (RE-024), a phosphopantothenate replacement therapy for pantothenate kinase-associated neurodegeneration: Mechanism of action and efficacy in nonclinical models” (PLoS ONE, 2018).
Like-named read-outs stand apart in the source and are kept apart here.

Key:
[1] = In vitro blood-brain barrier permeability (PBEC/rat astrocyte co-culture); conditions: pH 7.4, In Vitro Measured Papp, mean ± SD (n = 3)
Procedure: (§1) Permeability studies were performed after 2 days of co-culture with rat astrocytes. […] In each filter used for transport, a paracellular marker was included as an internal control to monitor the integrity of the cell monolayer. The day of the experiment, culture medium was removed and cells on Transwell inserts were pre-incubated for 30 min with Hank's Balanced Salt Solution (HBSS) containing 20 mM Hepes pH 7.4 and 0.1% bovine serum albumin (BSA). […] Aliquots from the basal compartment were taken after 1 h; fluorescence was measured using a fluorescence detector. The permeability coefficient of the total system was calculated as follows: P[cm/s]=Vd×ΔMr/A×Md×Δt Where:
(§2) To correct for the contribution of the porous polycarbonate membrane of the filter in the absence of cells, the permeability was also determined for the cell-free system. Contribution of the endothelial cell monolayer to the permeability of the cell and filter system was determined by the following equation: 1/Pe=1/Pt-1/Pf Where the total permeability of the system is denoted as Pt, the cell-free filter as Pf, and the endothelial cell layer alone as Pe. The total resistance of the system towards passage of a substance is composed of 2 resistances in series: that of the cell monolayer and that of the filter; permeability is estimated as 1/resistance [27]. […] Mass balance was determined based on the amount of compound recovered in the donor and receiver chamber at the end of the assay relative to the amount added to the donor chamber at time 0.

[2] = tested on: porcine brain endothelial cell (PBEC) co-culture model; assay: as above; conditions: in words
Procedure: as §1, §2

[3] = Microdialysis (striatal dialysate and blood) in cynomolgus monkeys; format: in vivo, cynomolgus monkey; conditions: cynomolgus monkey, in vivo, po
Procedure: Monkeys were sedated by intramuscular (i.m.) ketamine administration and cannulated for intravenous (i.v.) administration of propofol infusion (initiated 15–30 min after ketamine administration). Subsequently, the animals were placed in an magnetic resonance imaging (MRI)-compatible stereotaxic frame (Kopf Model 1430), and T1 and T2 weighted scans (for up to 1 h) were carried out with a 7 cm loop-coil in a 3 Tesla Siemens Magnetom TIM Trio (Germany). To derive the coordinates, Digital Imaging and Communications in Medicine (DICOM) files were transformed into Neuroimaging Informatics Technology Initiative (NIFTI) format. NIFTI-compatible images were loaded into 3D viewer software (MRIcro version 1.40 build 1), and the stereotaxic zero in the MRI image was determined using the coordinates of the earbar-tips. Coordinates for placement of the guide cannulas were calculated for every individual animal by use of MRI images and a primate brain map.
On a separate day, microdialysis guide cannulas were placed bilaterally in the head of the caudate nucleus using the same MRI compatible stereotaxic frame (Kopf Model 1430), under isoflurane anesthesia. Prior to surgery, animals were administered ketamine (i.m.), and subsequently anesthetized with isoflurane (0.8%-2% inhalation) while artificially ventilated with O2/N2O (40/60) at 60 to 80 mL tidal volume via an intratracheal tube. During surgery, subcutaneous or i.v. fluids were provided. Animals were allowed to recover from the anesthesia in a warmed environment, single housed, and given at a minimum a 14-day post-surgery recovery time. The following medications were administered to reduce pain and inflammation, as well as reduce the chance of post-operative infection: meloxicam (Metacam 5 mg/mL, 0.2 mg/kg, buprenorphine (Temgesic, 0.3 mg/mL, 0.0038 mg/kg), enrofloxacine (25 mg/mL, 5 mg/kg), and amoxicillin (150 mg/mL, 15 mg/kg).
Samples were stored in -80°C.
From monkeys only, whole blood samples (0.5 mL) were collected from the femoral vein at -1, 0, 1, 2, and 3 h relative to dosing and transferred immediately to chilled polypropylene 15 mL vials containing 2500 μL of 0.15% formic acid in acetonitrile, mixed, and placed on dry ice. After the collections samples were stored at -80°C.
Sample preparation for monkey dialysate and blood samples: Concentrations of fosmetpantotenate (D1 and D2), PA, and PPA in monkey dialysate and blood samples were determined by Brains On-Line LLC. […] For dialysate quantitation, standards and QC samples were prepared in control dialysate (0.2% BSA in aCSF: water: 0.04% ascorbic acid in aqueous 0.02 M formic acid [4.5:24:6 v/v/v]). Standards, QC samples, and dialysate (10 μL) were mixed with 6 μL 20 mM formic acid and 0.01% ascorbic acid in water containing internal standard (10 ng/mL of ^15N/^13C3-PA) and analyzed by LC-MS/MS. Blood standards and QC samples were prepared in supernatant from control monkey blood which had been treated with 5 volumes of 0.15% formic acid in acetonitrile. Endogenous levels >LLOQ were detected for PA in control quenched blood only and quantitated at 56.56 nM based on calibration standard prepared in solvent. To compensate for endogenous PA in the calibration curve control blood, PA standard curve concentrations were spiked plus endogenous levels. Sample work-up of blood involved diluting 10 μL supernatant from study blood samples, standards, and QC samples with 90 μL of 20 mM formic acid and 0.01% ascorbic acid in water, then treating with 4 μL 20 mM formic acid and 0.01% ascorbic acid in water containing internal standard (10 ng/mL of ^15N/^13C3-PA) and analyzing by LC-MS/MS.

[4] = male, CD-1, mouse, in vivo
[5] = in vivo; conditions: cynomolgus monkey, po, 300 mg/kg
Procedure: (§3) The whole blood samples (0.5 mL) were collected into syringes that were prefilled with 2.5 mL of ice-cold 0.1% formic acid in acetonitrile. The volume ratio of the whole blood to 0.1% formic acid in acetonitrile was 1/5 (v/v). Samples were frozen (-70°C) until analyzed by LC-MS/MS.
(§4) Standard curves and quality control (QC) samples were prepared fresh on the day of analysis by serial dilution of the standard mixture in quenched whole blood (1 part of blood to 5 parts of 0.1% formic acid in acetonitrile) and centrifuged. […] The frozen study samples were thawed in an ice/water bath and centrifuged. Supernatant (50 μL) from standards, QC samples, and study samples was transferred to a 96-well plate and dried completely under nitrogen. The dried residues were reconstituted with 100 μL of 0.1% formic acid in water containing internal standard (5 ng/mL of ^15N/^13C3-RE-024-02) and analyzed by LC-MS/MS.
(§5) LC-MS/MS analysis for blood pharmacokinetic samples: Samples were analyzed using an Agilent 1100 binary pump (Agilent Technologies, Santa Clara, CA, USA), connected to an AB Sciex API 6500 mass spectrometer (SCIEX, Framingham, MA, USA). An electrospray ionization source was used, scanning in the positive mode. […] The chromatography column was a Varian Metasil AQ 120–5 C18 column, 5 μm, 50 x 2.00 mm (Part No. A0530050X020) at ambient temperature, with a 0.5 mL/min flow rate and a 20 μL injection volume. Mobile phase (A) consisted of 0.1% formic acid in water; while mobile phase (B) consisted of 0.1% formic acid in acetonitrile:water (9:1, v/v).
(§6) Quantitation of in vivo samples: Peak areas were integrated using Analyst software (AB Sciex, Concord, Ontario, Canada). […] Calibration standards (at a minimum 7 per curve) were fit by linear regression with (1/x^2) weighting. QC samples were used (triplicate) at 3 concentrations for all tandem mass spectrometry (MS/MS) runs.
(§7) Pharmacokinetic calculations: PK analysis was performed using Phoenix WinNonlin®, Build 6.3.0.395 (Certara, Princeton, NJ, USA) using a non-compartmental model (PO dose = model 200 for extravascular dosing). […] Post-dose concentrations below the limit of quantitation (BLQ) were omitted from calculation.

[6] = in vitro
Procedure: as §1, §2

[7] = in vivo; conditions: male, Sprague-Dawley, rat, po
Procedure: as §3, §4, §5, §6, §7

[8] = male, Sprague-Dawley, rat, in vivo
Procedure: as §3, §4, §5, §6, §7

[9] = in vivo; conditions: male, C57Bl6, mouse, po, 700 mg/kg
Procedure: (§8) Mice were anesthetized using isoflurane (2%, 800 mL/min O2).
(§9) For oral dosing experiments, MetaQuant microdialysis probes (regenerated cellulose membrane, BrainLink, the Netherlands) were inserted into the striatum (3 mm exposed surface). Coordinates for the tips of the probes for mice were anterior-posterior (AP) = +0.8 mm from bregma, lateral (L) = -1.7 mm from midline, and ventral (V) = -4.0 mm from dura, the toothbar set at 0 mm.
(§10) Microdialysis animal dosing and sample collection: Adult non-fasted male C57Bl6 mice (20–29 g; Harlan Laboratories, Livermore, CA), and Macaca fascicularis (4–9 kg, 3–6 yr old) were used for the experiments. For oral dosing, fosmetpantotenate was formulated as a solution in 20% hydroxypropyl-beta-cyclodextrin in 50 mM citrate buffer in water pH 5.0 and administered using a dose volume of 10 mL/kg. Mice (N = 6 serially sampled) received fosmetpantotenate as a single oral dose at 700 mg/kg and monkeys received a single oral dose at either 100 mg/kg (N = 4 serially sampled) or 300 mg/kg (N = 2 serially sampled).
(§11) Microdialysis: On the morning of the microdialysis experiment, a MetaQuant probe was inserted into the guide shaft targeting the head of the caudate nucleus and perfused at a rate of 0.15 μL/min aCSF containing 0.2% (w/v) BSA, with a carrier flow of 0.8 μL/min of ultrapure water.
(§12) A single 30 min pre-dose basal dialysate sample was collected from mice over -0.5 to 0 h, and three 30 min basal samples from monkeys over -1.5 to 0 h. Fosmetpantotenate was administered at t = 0, and 30 min dialysate samples were collected for an additional 4 h for mice and 3 h for monkeys.
(§13) Sample preparation for mouse dialysate samples: Concentrations of fosmetpantotenate, PA, and PPA in mouse dialysate were determined by Nextcea, Inc, Woburn, MA, using LC-MS/MS. Standard curves and QC samples containing fosmetpantotenate (D1 and D2) and the surrogate analytes for PA and PPA (^15N/^13C3-PA and ^15N/^13C3-PPA) were prepared fresh in 0.1% formic acid in water. Frozen study mouse dialysate samples were thawed in ice/water bath. Standards, QC samples, and thawed study dialysate samples (20 μL) were mixed with 20 μL 0.1% formic acid in water containing internal standard (50 ng/mL of ^15N/^13C3-fosmetpantotenate) and analyzed by LC-MS/MS.
(§14) LC-MS/MS analysis for mouse dialysate samples: Concentrations of fosmetpantotenate, PA, and PPA in dialysate from mice were determined by using LC-MS/MS conditions described for blood PK analysis by Nextcea, except dialysate samples were analyzed using an ACIEX API 5000 and flow rate was increased to 0.6 mL/min.
(§15) Quantitation of in vivo samples: Peak areas were integrated using Analyst software (AB Sciex, Concord, Ontario, Canada). Calibration curves for all blood samples from mouse and rat PK studies and mouse dialysate samples were prepared by plotting the analyte to internal standard (^15N/^13C3-fosmetpantotenate) peak area ratio vs concentration.

[10] = tested on: porcine brain endothelial cell (PBEC) co-culture model
Procedure: as §1, §2

[11] = in vivo; conditions: male, CD-1, mouse, po
[12] = male, C57Bl6, mouse, in vivo, po, 700 mg/kg
Procedure: as §8, §9, §10, §11, §12, §13, §14, §15

[13] = Pharmacokinetics in whole blood, CD-1 mice; conditions: male, CD-1, mouse, whole blood, oral, 100 mg/kg, Conc., blood; fosmetpantotenate 100 mg/kg PO; 2 hr; individual animals
[14] = PA Concentration in Mouse Striatal Dialysate (Corrected for Dilution)
[15] = PA Concentration in Mouse Striatal Dialysate (Corrected for Dilution), Mean

Compound: C=CCN1CC[C@]23c4c5ccc(O)c4O[C@H]2C(=O)CC[C@@]3(O)[C@H]1C5 [Naloxone]
- Papp at 1 h [1]: 42.3 ± 11 ×10⁻⁶ cm/s
- blood-brain barrier permeability classification [2]: high permeability range

Compound: CC(C)(CO)[C@@H](O)C(=O)NCCC(=O)O [PA, pantothenate]
- AUC ([3]; 300 mg/kg): 2.17 µM·h
- Cmax ([3]; 300 mg/kg): 1300 nM
- AUC ([3]; cynomolgus, 100 mg/kg): 0.467 ± 0.152 µM·h
- Cmax ([3]; cynomolgus, 100 mg/kg): 255 ± 70 nM
- AUC ([3]; cynomolgus, 300 mg/kg): 9.34 µM·h
- Cmax ([3]; cynomolgus, 300 mg/kg): 4270 nM
- fold increase in AUC as dose increased from 100 to 700 mg/kg [4]: 3.1 fold
- fold increase in Cmax as dose increased from 100 to 700 mg/kg [4]: 2.4 fold
- AUC [5]: 3.35 µM·h
- Cmax [5]: 589 nM
- Papp at 1 h ([6]; pH 7.4, In Vitro Measured Papp): 4.2 ± 1.3 ×10⁻⁶ cm/s
- Papp at 60 min ([6]; pig, pH 7.4, Papp): 5.6 ×10⁻⁶ cm/s
- AUC ([7]; 100 mg/kg): 8.68 µM·h
- Cmax ([7]; 100 mg/kg): 1340 nM
- AUC ([7]; 300 mg/kg): 32.5 µM·h
- Cmax ([7]; 300 mg/kg): 4750 nM
- AUC ([7]; 700 mg/kg): 40.1 µM·h
- Cmax ([7]; 700 mg/kg): 7900 nM
- fold increase in AUC as dose increased from 100 to 700 mg/kg [8]: 4.6 fold
- fold increase in Cmax as dose increased from 100 to 700 mg/kg [8]: 5.9 fold
- AUC [9]: 0.154 ± 0.105 µM·h
- Cmax ([9]; PA Cmax): 88 ± 74.3 nM
- concentration at 0 h [9, 14]: 52.8 nM
- concentration at 0.5 h [9, 14]: 65.1 nM
- concentration at 1 h [9, 14]: 77.7 nM
- concentration at 0 h [9, 15]: 50.7 nM
- concentration at 0.5 h [9, 15]: 57.7 nM
- concentration at 1 h [9, 15]: 75.6 nM
- concentration at 3.5 h [9, 15]: 115 nM
- concentration at 4 h [9, 15]: 128 nM
- Cmax ([9]; total PA Cmax): 130 nM
- blood-brain barrier permeability classification [10]: permeable
- AUC ([11]; 100 mg/kg): 3.4 µM·h
- Cmax ([11]; 100 mg/kg): 683 nM
- AUC ([11]; 300 mg/kg): 5.76 µM·h
- Cmax ([11]; 300 mg/kg): 771 nM
- AUC ([11]; 700 mg/kg): 10.5 µM·h
- Cmax ([11]; 700 mg/kg): 1610 nM
- PA Concentration in Mouse Striatal Dialysate (Corrected for Dilution), Mean ([12]; 1.5 h): 61.5 nM
- PA Concentration in Mouse Striatal Dialysate (Corrected for Dilution), Mean ([12]; 2 h): 80.7 nM
- PA Concentration in Mouse Striatal Dialysate (Corrected for Dilution), Mean ([12]; 2.5 h): 87.6 nM
- PA Concentration in Mouse Striatal Dialysate (Corrected for Dilution), Mean ([12]; 3 h): 95.3 nM
- concentration at 2 h [13]: 282 nM
